Assay results: ChEMBL document CHEMBL1153693, “Inhibitors of leukotriene B4. Synthesis and sar of new -enaminoester open-chain analogues of zeneca ZD2138” (Bioorg Med Chem Lett, 1996)
Converted amounts (≈) assume the structure as drawn.

Key:
Homo sapiens = species on record: Homo sapiens; assay: In vitro inhibition of LTB4 production in human blood.; type: functional
Rattus norvegicus = assay: Compound was evaluated ex vivo for inhibition of LTB4 production in rat air pouch inflammatory exudate at 3 hr after peroral administration.; type: functional; settings: po
[1] = Aqueous solubility was determined; type: physicochemical

SMILES	IC50 (Homo sapiens) [nM]	solubility [1] [µM]	ED50 (Rattus norvegicus) [mg/kg]
COC1(/C=C/COCc2ccc3c(ccc(=O)n3C)c2)CCOCC1	500		> 5
COC1(C(=N)/C=C(\O)OCc2ccc3ccccc3c2)CCOCC1	70	50 (≈ 17.1 µg/mL)	> 5
COC1(/C=C/C(=O)OCc2ccc3c(ccc(=O)n3C)c2)CCOCC1	1700		> 5
COC1(C(=N)/C=C(\O)OCc2ccc3c(c2)OCC(=O)N3C)CCOCC1	60	25 (≈ 9.41 µg/mL)	5
COC1(c2cc(F)cc(OCc3ccc4c(ccc(=O)n4C)c3)c2)CCOCC1 [ZD-2138]		3.8 (≈ 1.51 µg/mL)	0.3

Further lines, with some results ahead:

IC50 (Homo sapiens) [nM]	solubility [1] [µM]	SMILES	ED50 (Rattus norvegicus) [mg/kg]
2600		CO/C(=C\C(=O)OCc1ccc2c(ccc(=O)n2C)c1)C1(OC)CCOCC1	> 5
> 10000		COC1(C(=O)CC(=O)OCc2ccc3c(ccc(=O)n3C)c2)CCOCC1	> 5
40	150 (≈ 55.9 µg/mL)	COC1(C(=N)/C=C(\O)OCc2ccc3c(ccc(=O)n3C)c2)CCOCC1	3
2100		COC1(/C(C)=C/C(=O)OCc2ccc3c(ccc(=O)n3C)c2)CCOCC1	> 5
